Data: ChEMBL document CHEMBL1781972, “Daphnane-type diterpenoids from Trigonostemon howii” (J Nat Prod, 2011)

Tested on: HL-60
Test: Cytotoxicity against human HL60 cells after 72 hrs by MTT method
Assay type: functional, cell-based
Conditions: HL-60, 72 h

Row | SMILES | IC50
1 | C=C(C)[C@@]1(O)[C@@H]2OC3(c4ccccc4)O[C@H]1[C@@H](C)[C@@]1(O3)[C@H]2[C@H](OC(C)=O)[C@@](C)(OC(=O)c2ccccc2)[C@@H](O)[C@@]2(OC(C)=O)[C@H]1C[C@H](C)[C@@H]2OC(C)=O [TRIGOHOWNIN A] | 17 µM
2 | C=C(C)[C@@]12OC3(c4ccccc4)O[C@@H]1[C@@H]1[C@H](OC(C)=O)[C@@](C)(O)[C@@H](OC(C)=O)[C@@]4(OC(=O)c5ccccc5)[C@@H](C[C@H](C)[C@@H]4OC(C)=O)[C@@]1(O3)[C@H](C)[C@@H]2OC(C)=O [TRIGOHOWNIN D] | 9.3 µM
